# In US20090275099A1 (priority 2004, published 2009):
# Like-named read-outs stand apart in the source and are kept apart here.
# How the values were obtained:
# [1] = target: T1, mitochondrial F1F0-ATPase (Bos taurus, UniProt P13621+P32876); assay: biochemical; parameters: species or system bovine; conditions: for IC50: read-out: KJ IC50 (syn); for EC50: bovine SMPs
# [2] = target: T1, mitochondrial F1F0-ATPase; assay: biochemical; parameters: species or system bovine; conditions: for IC50: read-out: KJ IC50 (hydr); for EC50: bovine SMPs
# [3] = target: mitochondrial F1F0-ATPase (Homo sapiens, UniProt P48047); conditions: read-out: BMS IC50 (hydr); cited from earlier work
# [4] = target: T2, F1F0-ATPase, OSCP subunit (UniProt P48047); assay: F1F0-ATPase activity in SMPs reconstituted in the presence or absence of the OSCP; type: biochemical, bovine; parameters: rows headed: KJ IC50 reconst; not tied in print to the reconstitution assay; conditions: read-out: KJ IC50 reconst
# T2 sequence (P48047 1-213): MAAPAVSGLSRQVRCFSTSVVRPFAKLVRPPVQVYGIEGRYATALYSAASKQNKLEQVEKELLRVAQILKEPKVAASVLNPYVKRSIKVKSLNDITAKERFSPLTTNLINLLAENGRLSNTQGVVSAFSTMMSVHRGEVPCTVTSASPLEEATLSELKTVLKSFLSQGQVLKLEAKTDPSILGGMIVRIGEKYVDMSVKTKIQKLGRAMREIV
# Description: (§1) An additional OSCP binding assay was conducted. […] Benzodiazepine derivative compounds that bind the OSCP include, but are not limited to: […]
# [5] = test system: F1F0-ATPase, OSCP subunit; assay: as above; type: biochemical, bovine; conditions: without OSCP, at IC50
# Description: as §1
# Jurkat cells [6] = assay: early O2− (ROS) response, 1 h; type: cell-based; conditions: for EC50: 1 h, read-out: ROS EC50 (μM), Jurkat cells; for % ROS+: Jurkat cells, 75 μM PK11195, with or without antioxidant pre-incubation
# Description: (§2) To detect O2^−, cells are incubated with DHE (10 μM) for 30 min at 37° C. and are analyzed by flow cytometry to measure ethidium fluorescence. Flow analysis of mitochondrial transmembrane potential (ψm) is conducted by labeling cells with DiOC6(3) (20 nM) for 15 min at 37 degrees C. A positive control for disruption of ψm is established using carbonyl cyanide m-chlorophenylhydrazone (CCCP, 50 μM). Caspase activation assays are performed with FAM-VAD-fluoromethylketone. Processing of the substrate is evaluated by flow cytometry.
# (§3) Since an early mitochondrial superoxide (O2^−) mediates apoptosis induced by Bz-423, the O2^− response of cells 1 h following incubation with drug was examined, as well as cell death at 24 h, as previously described (see, e.g., Blatt, N. B., et al., 2002 J Clin Invest 110, 1123-1132; incorporated herein by reference in its entirety).
# Ramos B cells = assay: cell death of Ramos B cells, propidium iodide exclusion by flow cytometry, 24 h; type: cell-based, human; conditions: for EC50: 24 h
# Jurkat cells [7] = assay: cell death at 24 h; type: cell-based; conditions: for EC50: 24 h, read-out: Cell death EC50 (μM), Jurkat cells; for % Cell death: Jurkat cells, 75 μM PK11195, with or without antioxidant pre-incubation
# Description: as §3
# Ramos cells = assay: early O2− (ROS) response, 1 h; type: cell-based, human; conditions: for EC50: 1 h, read-out: ROS EC50 (μM), Ramos cells
# Description: as §2, §3
# [8] = test system: isolated rat liver mitochondria; assay: ROS production in isolated mitochondria (DCF oxidation); conditions: aerobic conditions supporting state 3 respiration, slope versus control
# Description: Male Long Evans rats are starved overnight and sacrificed by decapitation. Liver samples are homogenized in ice cold buffer A (250 mM sucrose, 10 mM Tris, 0.1 mM EGTA, pH 7.4), and nuclei and cellular debris are pelleted (10 min, 830 g, 4° C.). Mitochondria are collected by centrifugation (10 min, 15,000 g, 4° C.), and the supernatant is collected as the S15 fraction. The mitochondrial pellet is washed three times with buffer B (250 mM sucrose, 10 mM Tris, pH 7.4), and re-suspended in buffer B at 20-30 mg/mL. Mitochondria are diluted (0.5 mg/mL) in buffer C (200 mM sucrose, 10 mM Tris, pH 7.4, 1 mM KH2PO4, 10 μM EGTA, 2.5 μM rotenone, 5 mM succinate) containing 2′,7′-dichlorodihydrofluorescin diacetate (DCFH-DA, 1 μM). For state 3 measurements, ADP (2 mM) is included in the buffer, and prior to the addition of Bz-423, mitochondria are allowed to charge for 2 min. To induce state 4, oligomycin (10 μM) is added to buffer C. […] To detect effects on O2^− and delta ψm, mitochondria are incubated for 15 min at 37° C. in buffer C with vehicle, Bz-423, or CCCP containing DHE (5 μM) or DIOC6(3) (20 nM), and aliquots are removed for analysis by fluorescence microscopy.
# O2^− production by Bz-423 may result from binding to a protein within mitochondria or a target in another compartment that signals mitochondria to generate ROS. […]
# [9] = ATPase activity EC50 (μM), Synthesis
# [10] = ATPase activity EC50 (μM), Hydrolysis
Compound,IC50 [1] [nM],IC50 [2] [nM],IC50 [3] [nM],IC50 [4] [nM],% activity without OSCP at IC50 [5] [%],further results
"N#Cc1cccc(C(=O)/N=C(\Nc2ccc(Cl)cc2)NC(Cn2ccnc2)c2ccc(Cl)cc2Cl)c1 (racemic) [(+/−)-(1-(2,4-dichlorophenyl)-2-(1H-imidazol-1-yl)ethyl)-3-(4-chlorophenyl)-2-(3-cyanobenzoyl)guanidine]",1500,100,33,200,,
"O=S(=O)(c1ccc(Cl)c(Cl)c1)N1Cc2ccccc2N(Cc2c[nH]cn2)C(CCc2ccccc2)C1 (centres unmarked) [4-(3,4-dichlorophenylsulfonyl)-1-(1H-imidazol-4-ylmethyl)-2-phenethyl-2,3,4,5-tetrahydro-1H-benzo[e][1,4]diazepine]",5000,60,22,50,76,
"O=S(=O)(c1ccc(F)cc1)N1Cc2ccccc2N(Cc2c[nH]cn2)C(CCc2ccccc2)C1 (centres unmarked) [4-(4-fluorophenylsulfonyl)1-(1H-imidazol-4-ylmethyl)-2-phenethyl-2,3,4,5-tetrahydro-1H-benzo[e][1,4]diazepine]",7500,150,221,100,79,
"O=S(=O)(c1ccc(O)cc1)N1Cc2ccccc2N(Cc2cnc[nH]2)C(CCc2ccccc2)C1 (centres unmarked) [4-(4-hydroxphenylsulfonyl)-1-(1H-imidazol-4-ylmethyl)-2-phenethyl-2,3,4,5-tetrahydro-1H-benzo[e][1,4]diazepine]",20000,750,667,500,77,
"COc1ccc(S(=O)(=O)N2Cc3ccccc3N(Cc3c[nH]cn3)C(CCc3ccccc3)C2)cc1 (centres unmarked) [4-(4-methoxyphenylsulfonyl)-1-(1H-imidazol-4-ylmethyl)-2-phenethyl-2,3,4,5-tetrahydrol-1H-benzo[e][1,4]diazepine]",7500,75,77,50,81,
"Cc1[nH]cnc1CN1c2ccccc2CN(S(=O)(=O)c2ccc(C(C)(C)C)cc2)CC1CCc1ccccc1 (centres unmarked) [4-(4-tert-butylphenylsulfonyl)-1-(5-methyl-1H-imidazol-4-ylmethyl)-2-phenethyl-2,3,4,5-tetrahydro-1H-benzo[e][1,4]diazepine]",15000,55,77,5,80,
"CC(C)(C)c1ccc(S(=O)(=O)N2Cc3ccccc3N(Cc3c[nH]cn3)C(CCc3ccccc3)C2)cc1 (centres unmarked) [4-(4-tertbutylphenylsulfonyl)-1-(1H-imidazol-4-ylmethyl)-2-phenethyl-2,3,4,5-tetrahydro-1H-benzo[e][1,4]diazepine]",5000,25,8,20,77,
"O=S(=O)(c1ccc(C(F)(F)F)cc1)N1Cc2ccccc2N(Cc2c[nH]cn2)C(CCc2ccccc2)C1 (centres unmarked) [4-(4-trifluoromethylphenylsulfonyl)-1-(1H-imidazol-4-ylmethyl)-2-phenethyl-2,3,4,5-tetrahydro-1H-benzo[e][1,4]diazepine]",6000,50,100,25,80,
"O=S(=O)(N1Cc2ccccc2N(Cc2c[nH]cn2)C(CCc2ccccc2)C1)C(F)(F)F (centres unmarked) [4-trifluoromethylsulfonyl-1-(1H-imidazol-4-ylmethyl)-2-phenethyl-2,3,4,5-tetrahydro-1H-benzo[e][1,4]diazepine]",3750,50,77,50,78,
"N#CN/C(=N/c1ccc(Cl)cc1Cl)NC(Cn1ccnc1)c1ccc(Cl)cc1Cl (centres unmarked) [(1-(2,4-dichlorophenyl)-2-(1H-imidazol-1-yl)ethyl)-3-(2,4-dichlorophenyl)-2-cyanoguanidine]",6000,> 3000,600,4000,,
"N#CN/C(=N\C(Cn1ccnc1)c1cc(C(F)(F)F)ccc1C(F)(F)F)Nc1ccc(Cl)cc1Cl (centres unmarked) [(1-(2,5-bis(trifluoromethyl)phenyl)-2-(1H-imidazol-1-yl)ethyl)-3-(2,4-dichlorophenyl)-2-cyanoguanidine]",3750,100,710,250,,
"S=C(Nc1ccc(Cl)cc1)OC(Cn1ccnc1)c1ccc(Cl)cc1Cl (centres unmarked) [(4-chlorophenyl)-thiocarbamic acid O-[1-(2,4-dichlorophenyl)-2-imidazol-1-yl-ethyl] ester]",12500,750,430,300,70,
"CN1C(=O)CN=C(c2ccc(Cl)cc2)c2cc(Cl)ccc21 [Compound 4-Cl-Dz, 4-chlorodiazepam]",,,,,,"EC50 ([1]; read-out: ATPase activity EC50 (μM), Synthesis): 210 µM; inhibition of mitochondrial ATPase activity ([2]; 80 μM): do not significantly inhibit mitochondrial ATPase activity; EC50 ([2]; read-out: ATPase activity EC50 (μM), Hydrolysis): > 300 µM; EC50 (Jurkat cells [6]): 230 µM; EC50 (Ramos B cells; read-out: Cell death EC50 (μM), Ramos cells): 130 µM; EC50 (Jurkat cells [7]): > 300 µM; EC50 (Ramos cells): 180 µM"
"O=C1CN=C(c2ccccc2Cl)c2cc([N+](=O)[O-])ccc2N1 [Cz, clonazepam]",,,,,,"EC50 [1, 9]: 120 µM; EC50 [2, 10]: 240 µM; EC50 (Jurkat cells [6]; Homo sapiens, Jurkat): > 300 µM; EC50 (Ramos B cells; Homo sapiens, Ramos, read-out: Cell death EC50 (μM), Ramos cells): > 300 µM; EC50 (Jurkat cells [7]; Homo sapiens, Jurkat): > 300 µM; EC50 (Ramos cells; Homo sapiens, Ramos): > 300 µM"
"CN1C(=O)CN=C(c2ccccc2)c2cc(Cl)ccc21 [Dz, diazepam, reference compound]",,,,,,"EC50 [1, 9]: 210 µM; EC50 [2, 10]: > 300 µM; EC50 (Ramos B cells; Homo sapiens, Ramos, read-out: EC50 (μM), cell death): > 80 µM"
CN1C(=O)C(Cc2ccc3ccccc3c2)CN(c2ccc(O)cc2)c2cc(Cl)ccc21 (centres unmarked) [GD-423],,,,,,"cellular death of Ramos cells (Ramos B cells; 24 hours, 2% FBS, FIG. 8): causes cell death; response of Ramos cells at 1 hour (Ramos cells; 1 hour, 2% FBS, DHE, FIG. 9): causes cell death"
"O=C(O)c1ccc(-c2c3nc(c(-c4ccc(C(=O)O)cc4)c4ccc([nH]4)c(-c4ccc(C(=O)O)cc4)c4nc(c(-c5ccc(C(=O)O)cc5)c5ccc2[nH]5)C=C4)C=C3)cc1.[Mn+3] [MnTBAP, Manganese(III) meso-tetrakis(4-benzoic acid)porphyrin]",,,,,,% ROS+ (Jurkat cells [6]): 39.7 ± 2.8%; % Cell death (Jurkat cells [7]): 68.9 ± 1.0%
antimycin A,,,,,,increase of the rate of ROS production [8]: nearly two-fold
vitamin E,,,,,,% ROS+ (Jurkat cells [6]): 33.9 ± 2.6%; % Cell death (Jurkat cells [7]): 55.9 ± 0.5%
